For assay [1], the target named is T1, CIC-1 channels (Rattus norvegicus, UniProt P35524).
T1 construct: from tissue; host or cells: intact soleus muscle of 12-14-week old Wistar rats
T1 sequence (P35524 1-994): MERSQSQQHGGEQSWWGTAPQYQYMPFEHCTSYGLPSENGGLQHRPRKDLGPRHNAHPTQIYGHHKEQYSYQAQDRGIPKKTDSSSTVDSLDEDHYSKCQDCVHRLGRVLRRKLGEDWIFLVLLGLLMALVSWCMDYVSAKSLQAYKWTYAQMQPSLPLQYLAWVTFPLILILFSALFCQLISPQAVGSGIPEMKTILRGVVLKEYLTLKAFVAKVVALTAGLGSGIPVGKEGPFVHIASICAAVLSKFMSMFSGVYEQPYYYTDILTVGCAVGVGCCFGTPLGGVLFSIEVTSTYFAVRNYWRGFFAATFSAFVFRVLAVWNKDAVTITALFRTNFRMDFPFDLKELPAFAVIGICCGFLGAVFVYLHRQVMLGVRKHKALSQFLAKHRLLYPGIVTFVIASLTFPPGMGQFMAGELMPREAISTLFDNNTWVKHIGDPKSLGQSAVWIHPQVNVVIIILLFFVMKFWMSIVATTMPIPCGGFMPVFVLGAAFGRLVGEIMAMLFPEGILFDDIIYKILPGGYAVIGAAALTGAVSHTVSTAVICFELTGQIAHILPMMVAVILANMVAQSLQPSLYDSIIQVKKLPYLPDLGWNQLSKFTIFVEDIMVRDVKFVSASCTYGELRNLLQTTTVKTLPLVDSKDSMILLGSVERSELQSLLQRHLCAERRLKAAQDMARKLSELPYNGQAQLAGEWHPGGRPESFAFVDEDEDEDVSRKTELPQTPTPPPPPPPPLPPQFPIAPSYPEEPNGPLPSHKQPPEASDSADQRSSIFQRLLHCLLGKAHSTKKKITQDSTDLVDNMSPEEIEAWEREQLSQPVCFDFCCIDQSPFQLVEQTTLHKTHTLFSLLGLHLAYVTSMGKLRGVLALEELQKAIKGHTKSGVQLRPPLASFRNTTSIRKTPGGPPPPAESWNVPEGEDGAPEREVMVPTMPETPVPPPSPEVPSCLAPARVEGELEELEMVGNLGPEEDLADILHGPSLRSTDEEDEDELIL
Briefly: Electrophysiological measurement of compound inhibition of CIC-1 in rat muscle (Gm, three micro-electrodes technique). The format is cell-based. The following applies: reduction of Gm in fibres of whole rat soleus muscles, approx. 30°C; n = number of experiments. An excerpt: Table 2: Inhibition of CIC-1 ion channel using compounds of the invention

Assay [2] addresses T2, human CIC-1 channels (Homo sapiens, UniProt P35523).
T2 construct: host or cells: CHO cells constitutively expressing human ClC-1
Kind of assay: Automated patch-clamp on human CIC-1 expressed in CHO cells. The format is cell-based. To be noted: difference in half activation voltage, compound added intracellularly vs control cell patches; positive shift = CIC-1 inhibition. The method, then: The investigatory goal of these experiments was to evaluate how compounds affect the open probability and current amplitude of human CIC-1 channels expressed in CHO cells. Experiments were performed using an automated patch clamp system that allowed high throughput testing of whole cell patches together with both intracellular and extracellular addition of compound.
Automated whole cell patch clamp experiments were performed with the Qpatch 16 system (Sophion Bioscience, Ballerup, Denmark) at room temperature. Data acquisition and analysis were performed in the Qassay software (ver. 5.6, Odense).
To evoke CIC-1 currents in whole cell patches, the membrane potential was initially stepped from a holding potential of -30 mV to +60 mV for 100 ms and then to various test voltages (sweeps) ranging from +120 mV to -140 mV in steps of 20 mV for 300 ms. To obtain tail currents, the membrane potential was stepped to -100 mV after each test voltage for 300 ms and then relaxed to -30 mV for 2 sec between sweeps (Figure 3). I/V relationships for whole cell instant and steady state current amplitudes were obtained by plotting average current densities at the beginning and at the end of the 300 ms step against the membrane potential (Figure 4).
In order to determine the relative overall open probability (P0), the instantaneous tail currents were normalized to the maximal tail current obtained following the most positive voltage step and plotted against the test voltage. Plots of normalized tail currents from each whole cell patch were then fitted to a Boltzmann function allowing determination of half activation voltages (V1/2, Figure 5).
For automated patch clamp experiments extracellular solutions contained: 2 mM CaCl2, 1 mM MgCl2, 10 mM HEPES, 4 mM KCI, 145 mM NaCl, 10 mM Glucose, pH adjusted to 7.4 with NaOH (2 M). Osmolality adjusted to -320 using sucrose.
Intracellular solutions contained: 80 mM CsF, 60 mM CsCI, 5/1 mM KOH/EGTA, 10 mM HEPES, 10 mM NaCl, pH adjusted to 7.2 with NaOH (2 M). Osmolality adjusted to -320 mOsm using sucrose.
Cells used in patch clamp experiments were Chinese hamster ovary cells (CHO) constitutively expressing human CIC-1 channels. The amino acid sequence encoded by the cDNA used to create this cell line was identical to the translated sequence for GenBank accession number NM_000083.2. Cells were produced by Charles River (Catalogue CT6175, Cleveland OH, USA) in a cryopreserved format. Experiments were performed on the cells directly after thawing (3 × 10^6 cells used in each experiment).
To evaluate the compound effect on CIC-1, when applied directly to the intracellular side of the cell membrane, the half activation voltage, V1/2, was determined from whole cell patches with compound added to the intracellular solution and then compared to V1/2 determined from control cell patches with only vehicle added to the intracellular solution. Additionally, the effect of extracellular added compound was evaluated by determine V1/2 and steady state current amplitudes before and after exchanging the extracellular solution to contain compound.
The difference in half activation voltage of CIC-1 channels, ΔV1/2, was determined as the difference between the cell patches treated intracellularly with compound and control cells patches and is reported in Table 4 below. A positive shift in ΔV1/2 is reflecting CIC-1 channel inhibition by the tested compound. P-values of <0.05 is considered significant. […]
For orientation: Patch clamp records ionic current or voltage across a cell membrane.

In assay [3] the test system is soleus muscles. Kind of assay: Measurement of force in an in vitro model: isolated rat nerve-muscle preparation with tubocurarine. To be noted: for activation at 50 µM: Rattus norvegicus, 40 min, percentage of initial force restored after 40 mins with 50 µM test compound, tubocurarine (115 nM) for 90 mins, read-out: Point increase. As to the method:
Recovery of force is quantified as the percentage of the force prior to tubocurarine that is recovered by the compound.
The current invention relates to compounds that inhibit CIC-1 ion channels and increase muscle excitability and thereby improve muscle function in clinical conditions where muscle activation is failing. Such conditions result in loss of contractile function of skeletal muscle, weakness and excessive fatigue. In this series of experiments the compounds were tested for their ability to restore contractile function of isolated rat muscle when the neuromuscular transmission had been compromised akin to neuromuscular disorders.
Experimentally, soleus muscles from 4-5 wk old rats were isolated with the motor nerve remaining attached. The nerve-muscle preparations were mounted in experimental setups that enabled electrical stimulation of the motor nerve. Stimulation of the motor nerve led to activation of the muscle fibres and ensuing force production that was recorded.
After mounting the nerve-muscle preparation in the experimental setup, the contractile function of the muscle was initially assessed under the control conditions (Figure 2A). […] The experimental condition mimics the failing neuromuscular transmission in a range of neuromuscular disorders. After addition of tubocurarine the contractile force declined over the next 90 mins to 10-50 % of the control force. 50 µM of the test compound was then added and the contractile force recovered despite the continued presence of tubocurarine. To quantify the ability of the compound to restore force the percentage of the initial force that was restored was determined after 40 mins of compound exposure (Figure 2B) and the point increase is reported in Table 3. Table 3: Percentage increase of initial force that was restored using compounds of the invention

These results are taken from EP3723745B1, “PHENOXY ACIDS FOR THE TREATMENT OF NEUROMUSCULAR DISORDERS” (NMD Pharma A/S, priority 2017, dated 2019).

Bounds are passed on as bounds.

T2 sequence (P35523 whole entry): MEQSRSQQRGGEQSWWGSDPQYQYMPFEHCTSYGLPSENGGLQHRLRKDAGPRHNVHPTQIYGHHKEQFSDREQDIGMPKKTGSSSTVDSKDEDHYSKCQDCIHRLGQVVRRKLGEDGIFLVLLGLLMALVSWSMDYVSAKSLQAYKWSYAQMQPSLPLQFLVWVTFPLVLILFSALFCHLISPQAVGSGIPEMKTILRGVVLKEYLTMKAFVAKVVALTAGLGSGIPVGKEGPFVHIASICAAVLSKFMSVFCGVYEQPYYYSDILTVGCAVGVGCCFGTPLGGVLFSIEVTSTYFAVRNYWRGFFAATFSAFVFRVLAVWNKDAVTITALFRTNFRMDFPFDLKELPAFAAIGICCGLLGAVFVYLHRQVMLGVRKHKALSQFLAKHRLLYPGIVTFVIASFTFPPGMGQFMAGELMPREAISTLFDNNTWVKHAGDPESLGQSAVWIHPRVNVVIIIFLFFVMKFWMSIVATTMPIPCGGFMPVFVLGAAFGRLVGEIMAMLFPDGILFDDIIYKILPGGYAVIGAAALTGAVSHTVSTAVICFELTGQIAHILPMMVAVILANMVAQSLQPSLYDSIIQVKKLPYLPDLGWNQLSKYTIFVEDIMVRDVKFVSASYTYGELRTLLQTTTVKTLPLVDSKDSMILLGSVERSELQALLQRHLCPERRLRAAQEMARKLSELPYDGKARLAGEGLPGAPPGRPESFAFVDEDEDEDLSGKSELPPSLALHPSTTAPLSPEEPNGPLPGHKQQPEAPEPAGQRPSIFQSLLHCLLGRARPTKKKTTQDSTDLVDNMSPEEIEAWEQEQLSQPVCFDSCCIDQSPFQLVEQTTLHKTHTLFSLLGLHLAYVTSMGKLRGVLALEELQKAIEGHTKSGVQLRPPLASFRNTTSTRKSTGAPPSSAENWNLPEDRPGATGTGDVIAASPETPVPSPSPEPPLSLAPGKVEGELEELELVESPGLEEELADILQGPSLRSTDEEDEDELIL

In assay [1], `CC(C)[C@@H](Oc1ccc(Br)cc1F)C(=O)O` [Compound A-4, (2R)-2-(4-bromo-2-fluorophenoxy)-3-methylbutanoic acid] displayed an EC50 greater than 80 µM.

As for `[2H]c1cc(Br)cc([2H])c1O[C@@H](C)C(=O)O` [Compound A-6, (2S)-2-[4-bromo(2,6-^2H2)phenoxy]propanoic acid], in assay [2], the ΔV1/2 is listed as 13.0 mV. Also, the activation at 50 µM in assay [3] was determined as 44%.

In the case of `C[C@H](Oc1ccc(Br)cc1I)C(=O)O` [Compound A-8, (2S)-2-(4-bromo-2-iodophenoxy)propanoic acid], the ΔV1/2 in assay [2] is 9.4 mV.

For the molecule `O=C(O)[C@@H](Oc1ccc(Br)cc1F)C(F)F` [Compound A-9, (2R)-2-(4-bromo-2-fluorophenoxy)-3,3-difluoropropanoic acid], the ΔV1/2 in assay [2] turned out to be 15.2 mV.

Consider `O=C(O)[C@H](CF)Oc1ccc(Br)cc1F` [Compound A-19, (2R)-2-(4-bromo-2-fluorophenoxy)-3-fluoropropanoic acid], for which the “average force (AUC) relative to initial force” value in assay [3] (50 µM compound added after 90 min incubation in tubocurarine, 3 muscles (Figure 2)) is reported as “recovered”.

In the case of `O=C(O)[C@H](CF)Oc1ccc(Br)cc1` [Compound A-26, (2R)-2-(4-bromophenoxy)-3-fluoropropanoic acid], the ΔV1/2 in assay [2] amounted to 19.7 mV. A half-maximal effect in assay [1] (EC50) was put at 3.8 ± 0.8 µM. In assay [3], the activation at 50 µM came to 39%.

Regarding `C[C@@H](Oc1ccc(Br)cc1F)C(=O)O` [Compound A-28, (2R)-2-(4-bromo-2-fluorophenoxy)propanoi c acid], the activation at 50 µM in assay [3] is -8%.

On to `C[C@H](Oc1ccc(Cl)cc1F)C(=O)O` [Compound A-38, (2S)-2-(4-chloro-2-fluorophenoxy)propanoi c acid], for which the ΔV1/2 in assay [2] was found to be 17.4 mV.

Regarding `C[C@H](Oc1ccc(Br)cc1Br)C(=O)O` [Compound A-40, (2S)-2-(2,4-dibromophenoxy)propan oic acid], the ΔV1/2 in assay [2] came out at 5.19 mV. The same molecule returned an EC50 in assay [1] of 4.2 ± 0.6 µM. Also, in assay [3], the activation at 50 µM was 20%.

For the molecule `COC(=O)[C@H](C)Oc1ccc(Cl)cc1` [Compound A-54, methyl (2S)-2-(4-chlorophenoxy)propano ate], a half-maximal response in assay [1] (EC50) required 6.8 ± 1.3 µM.

On to `CC[C@H](Oc1ccc(Br)cc1F)C(=O)O` [Compound A-58, (2S)-2-(4-bromo-2-fluorophenoxy)butanoic acid], for which the ΔV1/2 in assay [2] is 28.2 mV. The molecule also registered an EC50 in assay [1] of 6.3 ± 2.4 µM. For the same molecule, the activation at 50 µM in assay [3] was 44%.

On to `C#CC[C@H](Oc1ccc(Br)cc1Br)C(=O)O` [Compound A-66, (2S)-2-(2,4-dibromophenoxy)pent-4-ynoic acid], for which, in assay [2], the ΔV1/2 stood at 27.4 mV. This molecule had an EC50 in assay [1] of 7.2 µM. The activation at 50 µM in assay [3] turned out to be 51%.

In the case of `C#CC[C@H](Oc1ccc(Br)cc1Cl)C(=O)O` [Compound A-67, (2S)-2-(4-bromo-2-chlorophenoxy)pent-4-ynoic acid], in assay [2], the ΔV1/2 came out at 37.8 mV. The same molecule had an EC50 in assay [1] of 9.4 ± 0.6 µM. For the same molecule, the activation at 50 µM in assay [3] came to 40%.

On to `C#CC[C@H](Oc1ccc(Br)cc1F)C(=O)O` [Compound A-69, (2S)-2-(4-bromo-2-fluorophenoxy)pent-4-ynoic acid], for which, in assay [2], the ΔV1/2 is 32.6 mV.

On to `O=C(O)[C@@H](Oc1ccc(Br)cc1Cl)C1CCC1` [Compound A-71, (2S)-2-(4-bromo-2-chlorophenoxy)-2-cyclobutylacetic acid], for which the EC50 in assay [1] came to 10.1 ± 0.2 µM. Moreover, in assay [3], the activation at 50 µM turned out to be 49%.

Regarding `CC(C)[C@H](Oc1ccc(Br)cc1Cl)C(=O)O` [Compound A-73, (2S)-2-(4-bromo-2-chlorophenoxy)-3-methylbutanoic acid], the response in assay [1] was half-maximal at 7.2 µM (EC50). Also, the activation at 50 µM in assay [3] came to 51%.

For the molecule `[2H]CC([2H])[C@H](Oc1ccc(Br)cc1)C(=O)O` (stereo partly drawn) [Compound A-76, (2S)-2-(4-bromophenoxy)(3,4-^2H2)butanoic acid], the ΔV1/2 in assay [2] is 26.2 mV. Besides, in assay [3], the activation at 50 µM turned out to be 62%.

In the case of `CC[C@H](Oc1ccc(Br)cc1Cl)C(=O)O` [Compound A-78, (2S)-2-(4-bromo-2-chlorophenoxy)butanoic acid], the EC50 in assay [1] amounted to 7.6 ± 1.6 µM. The activation at 50 µM in assay [3] came out at 38%.

For the molecule `[2H][C@@](CF)(Oc1ccc(Br)cc1)C(=O)O` [Compound A-82, (2R)-2-(4-bromophenoxy)-3-fluoro(2-^2H)propanoic acid], the ΔV1/2 in assay [2] turned out to be 19.0 mV. Further, the activation at 50 µM in assay [3] is 48%.

Turning to `O=C(O)[C@H](CCF)Oc1ccc(Br)cc1I` [Compound A-83, (2S)-2-(4-bromo-2-iodophenoxy)-4-fluorobutanoic acid], the EC50 in assay [1] came to 8 µM. Moreover, in assay [3], the activation at 50 µM came out at 35%.

On to `O=C(O)[C@@H](Oc1ccc(Br)cc1F)C1CCC1` [Compound A-86, (2S)-2-(4-bromo-2-fluorophenoxy)-2-cyclobutylacetic acid], for which, in assay [1], the concentration giving a half-maximal response (EC50) came to 8.9 ± 3.2 µM. In assay [3], the activation at 50 µM came out at 45%.

`CC(C)[C@H](Oc1ccc(Br)cc1I)C(=O)O` [Compound A-88, (2S)-2-(4-bromo-2-iodophenoxy)-3-methylbutanoic acid] gave an EC50 in assay [1] of 5.9 ± 1.6 µM. The activation at 50 µM in assay [3] is 55%.

`CC[C@H](Oc1ccc(Br)cc1I)C(=O)O` [Compound A-90, (2S)-2-(4-bromo-2-iodophenoxy)butanoic acid] yielded an EC50 in assay [1] of 2.3 µM. The activation at 50 µM in assay [3] worked out at 57%.

As usually defined, the EC50 is the midpoint of the concentration-response curve.
